Structures are written as SMILES.

Consider 9 molecules from patent publication US20220041647A1, “ESTRA-1,3,5(10)-TRIENE COMPOUNDS CONDENSED IN POSITION 16(17) WITH A PYRAZOLE RING AS INHIBITORS OF 17-HSD1” (FORENDO PHARMA LTD, priority 2018, published 2022).

Type in all cases: biochemical
The target of assay [1] is T1, recombinant human 17β-HSD2 (Homo sapiens, UniProt P37059).
T1 construct: made in house; host or cells: Sd9 (Sf9) insect cells, baculovirus (Bac to Bac Expression System)
T1 sequence (P37059 1-387): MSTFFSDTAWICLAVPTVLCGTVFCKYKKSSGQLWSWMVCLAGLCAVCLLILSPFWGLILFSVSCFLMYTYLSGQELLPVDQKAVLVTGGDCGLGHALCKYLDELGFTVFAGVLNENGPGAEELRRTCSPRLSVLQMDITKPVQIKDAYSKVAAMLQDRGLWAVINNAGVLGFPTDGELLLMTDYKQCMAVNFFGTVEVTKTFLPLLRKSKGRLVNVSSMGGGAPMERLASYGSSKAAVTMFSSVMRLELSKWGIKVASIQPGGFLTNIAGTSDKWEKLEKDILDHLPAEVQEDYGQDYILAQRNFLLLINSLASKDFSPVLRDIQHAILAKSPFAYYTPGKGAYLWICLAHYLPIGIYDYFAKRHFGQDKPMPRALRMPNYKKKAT
Briefly: Inhibition of recombinant human 17β-HSD2 (estradiol to estrone conversion, HPLC/radioactivity). The note with it: compound 1 μM; 50 nM estradiol, 1 mM NADH, 30 min RT. The method, then:
17β-HSD2 production and isolation: Similarly to 173-HSD1 the Recombinant baculovirus was generated by the “Bac to Bac Expression System” (Invitrogen). Recombinant bacmid was transfected to Sd9 insect cells using “Cellfectin Reagent” (Invitrogen). 60 h later cells were harvested and supernatant were fractionated by the following protocol: • cells were dissolved into 40 ml of A-buffer (40 mM TRIS, pH8.0, 20% glycerol, 20 μM NAD, 0.4 mM PMSF, 150 mM NaCl, 0.5% dodecyl-β-maltoside+protease inhibitor cocktail) • cells were sonicated • lysate was incubated on ice for 15 min • lysate was centrifuged 5000 rpm 15 min, +4° C. • centrifugation of the supernatant 180 000 g 30 min, +4° C. • pellet was dissolved into 8 ml of A-buffer • not resuspended material was removed by centrifugation 5000 rpm 15 min, +4° C. • the clear supernatant was divided into 100 μl aliquots and were stored frozen until determination of enzymatic activity.
The amount of 173-HSD2 was analysed by immunoblotting and total protein concentration of each extract batch was determined.
Assay—Inhibition of recombinant human 17β-HSD2: Recombinant protein (4 μg/ml) was incubated in 20 mM KH2PO4 pH 8.5 with 50 nM estradiol (including 800 000 cpm/ml of ^3H-estradiol) and 1 mM NADH for 30 min at RT, in the presence of the potential inhibitor at concentrations 1 μM or 0.1 μM. Inhibitor stock solutions were prepared in DMSO. Final concentration of DMSO was adjusted to 1% in all samples. The enzyme reaction was stopped by addition of 10% trichloroacetic acid (final concentration). Samples were centrifuged in a microtiter plate at 4000 rpm for 10 min. Supernatants were applied to reverse phase HPLC on a Waters Symmetry C18 column, equipped with a Waters Sentry Guard column. Isocratic HPLC runs were performed at RT at a flow rate of1 ml/min in acetonitrile:water 48:52 as running solvent. Radioactivity was monitored in the eluate by a Scintillation Analyzer. Total radioactivity for estrone and estradiol were determined in each sample and percent conversion of estradiol to estrone was calculated according to the following formula:
% conversion=100×{(cpm estrone in sample with inhibitor)/[(cpm estradiol in sample with inhibitor)+(cpm estrone in sample with inhibitor)]}/{[(cpm estrone in sample without inhibitor)/[(cpm estradiol in sample without inhibitor)+(cpm estrone in sample without inhibitor)]}.
(§1) Percent inhibition was calculated followingly: % inhibition=100−% conversion.

For assay [2], the system named is HSD1 enzyme that is expressed in rabbit placenta tissue. Briefly: Inhibition of E1 to E2 conversion in rabbit placenta tissue homogenate. To be noted: compound 100 nM, 30 nM estrone, 1 mM β-NADPH, 30 min. The protocol:
The assay is based on an enzymatic reaction where HSD1 enzyme that is expressed in rabbit placenta tissue converts its natural substance estrone (E1) to estradiol (E2) in the presence of a co-factor β-NADPH.
Homogenization of rabbit placenta tissue: Weight a piece of the frozen tissue into a Precellys ck28 bead tube. Add buffer solution (20 mM KH2PO4 with 1 mM EDTA, pH 7.4) in 1:2 ratio (e.g. 300 mg of tissue:600 μl reaction buffer solution). Insert the bead tubes to homogenizer and homogenize 2×30 s. 6000 rpm.
Centrifugated 5 min., 2600 rpm at +4° C. and collect supernatant. Aliquots of homogenate are stored in −80° C.
Assay—Inhibition of E1 to E2 conversion in rabbit placenta tissue: The reaction takes place in a buffer solution (20 mM KH2PO4 with 1 mM EDTA, pH 7,4), including appropriate amount of rabbit placenta homogenate, co-factor (1 mM β-NADPH), Substrate (30 nM estrone), labelled substrate as tracer (5 nM [^3H]-estrone), and the potential inhibitor at concentrations 1 μM or 0.1 μM. Inhibitor stock solutions were prepared in DMSO. Final concentration of DMSO was adjusted to 1% in all samples. During a 30-minute incubation part of the estrone is converted to estradiol. The reaction is stopped by lowering the pH to 1 with 10% trichloro acetic acid (TCA). The substrate and conversion products are analyzed by HPLC and a Scintillation counter analyzer. Total radioactivity for estrone and estradiol were determined in each sample and percent conversion of estrone to estradiol was calculated according to the following formula:
% conversion=100×{(cpm estradiol in sample with inhibitor)/[(cpm estrone in sample with inhibitor)+(cpm estradiol in sample with inhibitor)]}/{(cpm estradiol in sample without inhibitor)/[(cpm estrone in sample without inhibitor)+(cpm estradiol in sample without inhibitor)]}.
as §1

Assay [3] has as its target T2, recombinant human 17β-HSD1 (Homo sapiens, UniProt P14061).
T2 construct: made in house; host or cells: Sd9 (Sf9) insect cells, baculovirus (Bac to Bac Expression System)
T2 sequence (P14061 1-328): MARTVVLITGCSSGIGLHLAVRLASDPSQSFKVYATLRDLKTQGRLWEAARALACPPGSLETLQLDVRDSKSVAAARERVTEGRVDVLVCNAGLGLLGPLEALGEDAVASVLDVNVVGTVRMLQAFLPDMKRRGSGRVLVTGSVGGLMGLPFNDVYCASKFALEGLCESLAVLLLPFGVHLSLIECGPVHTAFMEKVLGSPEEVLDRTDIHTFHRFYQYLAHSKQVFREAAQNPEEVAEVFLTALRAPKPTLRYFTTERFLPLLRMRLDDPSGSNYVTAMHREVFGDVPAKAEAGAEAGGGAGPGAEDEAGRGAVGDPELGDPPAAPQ
Nature of the assay: Inhibition of recombinant human 17β-HSD1 (estrone to estradiol conversion, HPLC/radioactivity). The note with it: compound 100 nM; 30 nM estrone, 1 mM NADPH, 30 min RT. The protocol: 17β-HSD1 production and isolation: Recombinant baculovirus was generated by the “Bac to Bac Expression System” (Invitrogen). Recombinant bacmid was transfected to Sd9 insect cells using “Cellfectin Reagent” (Invitrogen). 60 h later cells were harvested; the microsomal fraction was isolated as described by Puranen, T. J., Poutanen, M. H., Peltoketo, H. E., Vihko, P. T. and Vihko, R. K. (1994) Site-directed mutagenesis of the putative active site of human 17 β-hydroxysteroid dehydrogenase type 1. Biochem. J. 304: 289-293. Aliquots were stored frozen until determination of enzymatic activity.
Assay—Inhibition of recombinant human 17β-HSD1: Recombinant protein (1 μg/ml) was incubated in 20 mM KH2PO4 pH 7.4 with 30 nM estrone (including 800 000 cpm/ml of ^3H-estrone) and 1 mM NADPH for 30 min at RT, in the presence of the potential inhibitor at concentrations 1 μM or 0.1 μM. Inhibitor stock solutions were prepared in DMSO. Final concentration of DMSO was adjusted to 1% in all samples. The enzyme reaction was stopped by addition of 10% trichloroacetic acid (final concentration). Samples were centrifuged in a microtiter plate at 4000 rpm for 10 min. Supernatants were applied to reverse phase HPLC on a Waters Symmetry C18 column, equipped with a Waters Sentry Guard column. Isocratic HPLC runs were performed at RT at a flow rate of 1 ml/min in acetonitrile:water 48:52 as running solvent. Radioactivity was monitored in the eluate by a Scintillation Analyzer. Total radioactivity for estrone and estradiol were determined in each sample and percent conversion of estrone to estradiol was calculated according to the following formula:
% conversion=100×{(cpm estradiol in sample with inhibitor)/[(cpm estrone in sample with inhibitor)+(cpm estradiol in sample with inhibitor)]}/{[(cpm estradiol in sample without inhibitor)/[(cpm estrone in sample without inhibitor)+(cpm estradiol in sample without inhibitor)]}.
as §1

For `Cc1ccc(NC(=O)CC[C@@H]2c3c[nH]nc3[C@@]3(C)CCC4c5ccc(F)cc5CCC4C23)nn1` (stereo partly drawn) [Compound 111, 3-((8aS,12S)-4-fluoro-8a-methyl-1,2,6b,7,8,8a,10,12,12a,12b-decahydronaphtho[2′,1′:4,5]indeno[1,2-c]pyrazol-12-yl)-N-(6-methylpyridazin-3-yl)propanamide], the inhibition (commonly the relative decrease from the control value, in per cent) at 1 µM in assay [1] was 1%. Also, in assay [2], the “Rabbit placenta inhibition % @100 nM” value is 55%. In addition, in assay [3], the inhibition at 0.1 µM is 48%.
Taken in the same sequence, the figures for `C[C@]12CCC3c4cccc(F)c4CCC3C1[C@H](CCC(=O)NC1CCOC1)c1c[nH]nc12` (stereo partly drawn) [Compound 225, 3-((8aS,12S)-3-fluoro-8a-methyl-1,2,6b,7,8,8a,10,12,12a,12b-decahydronaphtho[2′,1′:4,5]indeno[1,2-c]pyrazol-12-yl)-N-(tetrahydrofuran-3-yl)propanamide] were -2%, 10% and 88%.
Taken in the same sequence, the figures for `C[C@]12CCC3c4ccccc4CCC3C1[C@H](CCC(=O)N1Cc3ccccc3C1)c1c[nH]nc12` (stereo partly drawn) [Compound 180, 1-(isoindolin-2-yl)-3-((8aS,12S)-8a-methyl-1,2,6b,7,8,8a,10,12,12a,12b-decahydronaphtho[2′,1′:4,5]indeno[1,2-c]pyrazol-12-yl)propan-1-one] were 12%, 14% and 92%.
In the same order, the values of `C[C@]12CCC3c4ccccc4CCC3C1[C@H](CCC(=O)Nc1cccnn1)c1c[nH]nc12` (stereo partly drawn) [Compound 255, 3-((8aS,12S)-8a-methyl-1,2,6b,7,8,8a,10,12,12a,12b-decahydronaphtho[2′,1′:4,5]indeno[1,2-c]pyrazol-12-yl)-N-(pyridazin-3-yl)propanamide] are 0%, 46% and 66%.
For the molecule `C[C@]12CCC3c4cccc(F)c4CCC3C1[C@H](CCC(=O)Nc1cc(N3CCOCC3)ccn1)c1c[nH]nc12` (stereo partly drawn) [Compound 240, 3-((8aS,12S)-3-fluoro-8a-methyl-1,2,6b,7,8,8a,10,12,12a,12b-decahydronaphtho[2′,1′:4,5]indeno[1,2-c]pyrazol-12-yl)-N-(4-morpholinopyridin-2-yl)propanamide], in assay [1], the inhibition at 1 µM amounted to 2%. The “Rabbit placenta inhibition % @100 nM” value in assay [2] is recorded as 35%. For the same molecule, in assay [3], the inhibition at 0.1 µM is 84%.
With `C[C@]12CCC3c4ccccc4CCC3C1[C@H](CCC(=O)NC1CCC1)c1c[nH]nc12` (stereo partly drawn) [Compound 192, N-cyclobutyl-3-((8aS,12S)-8a-methyl-1,2,6b,7,8,8a,10,12,12a,12b-decahydronaphtho[2′,1′:4,5]indeno[1,2-c]pyrazol-12-yl)propanamide], the inhibition at 1 µM in assay [1] is 2%. For the same molecule, the “Rabbit placenta inhibition % @100 nM” value in assay [2] turned out to be 14%. Also, in assay [3], the inhibition at 0.1 µM amounted to 86%.
In the same order, the values of `C[C@]12CCC3c4cccc(F)c4CCC3C1[C@H](CCC(=O)Nc1ccc(C#N)cn1)c1c[nH]nc12` (stereo partly drawn) [Compound 3, N-(5-Cyanopyridin-2-yl)-3-((8aS,12S)-3-fluoro-8a-methyl-1,2,6b,7,8,8a,10,12,12a,12b-decahydronaphtho[2′,1′:4,5]indeno[1,2-c]pyrazol-12-yl)propanamide] are 9%, 54% and 98%.
In the same order, the values of `C[C@]12CCC3c4cccc(F)c4CCC3C1[C@H](CCC(=O)Nc1cccnn1)c1c[nH]nc12` (stereo partly drawn) [Compound 237, 3-((8aS,12S)-3-fluoro-8a-methyl-1,2,6b,7,8,8a,10,12,12a,12b-decahydronaphtho[2′,1′:4,5]indeno[1,2-c]pyrazol-12-yl)-N-(pyridazin-3-yl)propanamide] are 1%, 58% and 84%.
With `C[C@]12CCC3c4ccc(F)cc4CCC3C1[C@H](CCC(=O)Nc1cccc(F)n1)c1c[nH]nc12` (stereo partly drawn) [Compound 105, 3-((8aS,12S)-4-fluoro-8a-methyl-1,2,6b,7,8,8a,10,12,12a,12b-decahydronaphtho[2′,1′:4,5]indeno[1,2-c]pyrazol-12-yl)-N-(6-fluoropyridin-2-yl)propanamide], in assay [1], the inhibition at 1 µM was 9%. Besides, in assay [2], the “Rabbit placenta inhibition % @100 nM” value was 28%. The inhibition at 0.1 µM in assay [3] stood at 82%.
